The text below walks through data of ChEMBL document CHEMBL1201862, “PubChem BioAssay data set” (2004).

Assay in all cases: DTP human tumour cell line panel, 48 h
For experiment [1], the system named is 786-0.
The subject of experiment [2] is CAKI-1.
Experiment [3] deals with COLO 205.
Experiment [4] deals with DU-145.
The test system of experiment [5] is HOP-18.
The subject of experiment [6] is HT-29.
Experiment [7] deals with LOX IMVI.
For experiment [8], the system named is M14.
For experiment [9], the system named is MCF7.
Experiment [10] concerns MDA-MB-231.
For experiment [11], the system named is Malme-3M.
The subject of experiment [12] is NCI-H23.
Experiment [13] relates to OVCAR-5.
For experiment [14], the system named is PC-3.
The test system of experiment [15] is SF-295.
Experiment [16] concerns SK-OV-3.
Experiment [17] concerns SNB-75.
Experiment [18] concerns SR.
The subject of experiment [19] is SW-620.
Experiment [20] deals with T47D.

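In this assay, cells in 96-well plates receive the compound at five concentrations for 48 hours. Endpoints are linearly interpolated between the surrounding concentrations. At the GI50, growth is halved.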 The source made the active and inactive calls. Cut-off read from the data, not from the text of the source: active = GI50 up to about 1.1 µM and inactive = higher.

In general, GI50 refers to the concentration giving 50% growth inhibition.

On to `O=C1/C(=C/c2ccccc2)CN(C(=O)CCN2CCOCC2)C/C1=C\c1ccccc1`, for which the GI50 in [1] was 1.96 µM (inactive); in experiment [2], 10.1 µM (inactive); in [3], 2.74 µM (inactive); in experiment [4], 16 µM (inactive); in experiment [5] it was 16.7 µM (inactive); in experiment [6], 1.95 µM (inactive). Further, the 50% growth inhibitory concentration (GI50) in [7] was 0.897 µM (active); in experiment [8], 2.33 µM (inactive); in experiment [9], 1.95 µM (inactive); in experiment [10] it was 3.47 µM (inactive); in experiment [11], 2.49 µM (inactive); in experiment [12], 2.55 µM (inactive). Besides, the GI50 in [13] is 7.36 µM (inactive); in experiment [14], 2.75 µM (inactive); in [15] it was 2.42 µM (inactive); in experiment [16], 10.7 µM (inactive); in experiment [17], 7.18 µM (inactive); in experiment [18], 1.06 µM (active). Moreover, the GI50 was 0.459 µM (active) in [19] and 3.34 µM (inactive) in experiment [20].
For the compound `N#CCC(=O)N/N=C1/C(=O)NC(=O)C(=O)C1c1nc2ccccc2s1` (stereo not given), the GI50 in [1], in experiment [2], in [3], in experiment [5], in [6] and in experiment [7] was > 100 µM (inactive) in each case. In addition, the GI50 in experiment [8], in [11], in experiment [12], in experiment [13], in experiment [15] and in [16] was > 100 µM (inactive) in each case. Further, the GI50 in experiment [17] is > 100 µM (inactive); in experiment [18], 71.8 µM (inactive); in experiment [19] it was > 100 µM (inactive).
In the case of `CCN(CC)CCn1ccc(=O)c2cc3c(=O)ccn(CCN(CC)CC)c3c(C)c21`, the GI50 is 1.92 µM (inactive) in [1]; 7.4 µM (inactive) in experiment [2]; 3.87 µM (inactive) in experiment [3]; 5.19 µM (inactive) in experiment [4]; 6.82 µM (inactive) in experiment [5]; 2.81 µM (inactive) in [6]. Moreover, the GI50 in experiment [7] is 2.84 µM (inactive); in experiment [8] it was 9.38 µM (inactive); in experiment [9], 20.8 µM (inactive); in experiment [10], 5.27 µM (inactive); in experiment [11], 15 µM (inactive); in [12], 6.75 µM (inactive). The GI50 was 14.1 µM (inactive) in [13]; 4.79 µM (inactive) in [14]; 4.47 µM (inactive) in experiment [15]; 4.13 µM (inactive) in [16]; 9.91 µM (inactive) in experiment [17]; 1.26 µM (inactive) in experiment [18]. Also, the GI50 in experiment [19] is 1.53 µM (inactive); in [20] it was 25.1 µM (inactive).
